The source of these data is US9493468B2, “Antifungal 5,6-dihydro-4H-pyrrolo[1,2-a][1,4]benzo-diazepines and 6H-pyrrolo[1,2-a][1,4]benzodiazepines substituted with heterocyclic derivatives” (Janssen Pharmaceutica NV, priority 2011, dated 2016).

Common to all, as to format: cell-based
One assay deals with Candida parapsilosis. Description: Antifungal activity in vitro, resazurin growth inhibition: Candida parapsilosis (B66126). The method, boiled down:
(§1)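 Fungi (10^3 cfu/well) grown in RPMI-1640 with L-glutamine, 2% glucose, MOPS pH 7.0, against 2- or 4-fold compound dilutions up to 64 μM. Dermatophytes incubated one week or more at 27° C. Growth inhibition read fluorimetrically (λex 550, λem 590 nm) after resazurin addition and further incubation.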

For the next assay, the system named is Rhizopus oryzae. Description: Antifungal activity in vitro, resazurin growth inhibition: Rhizopus oryzae (IHEM5223). The method, boiled down: as §1
On the technique in general: Resazurin is reduced to fluorescent resorufin, in cell work by metabolically active cells.

The next assay concerns Microsporum canis. Description: Antifungal activity in vitro, resazurin growth inhibition: Microsporum canis (B68128). The gist of the method: (§2)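 Broth microdilution: RPMI-1640/L-Gln/2% glucose, MOPS pH 7.0±0.1; 10^3 cfu/well; top concentration 64 μM, 2- or 4-fold steps. Dermatophytes at 27° C., one week or more. Resazurin 0.005% (w/v) added, fluorescence 550/590 nm.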
A further assay concerns Rhizomucor miehei. Description: Antifungal activity in vitro, resazurin growth inhibition: Rhizomucor miehei (IHEM13391). The gist of the method:
as §1

The subject of a further assay is Sporothrix schenkii. Description: Antifungal activity in vitro, resazurin growth inhibition: Sporothrix schenkii (B62482). The method, boiled down:
as §1

The next assay deals with Scedosporium prolificans. Description: Antifungal activity in vitro, resazurin growth inhibition: Scedosporium prolificans (IHEM21157). The method, boiled down: as §1
The subject of the next assay is Trichophyton rubrum. Description: Antifungal activity in vitro, resazurin growth inhibition: Trichophyton rubrum (B68183). The gist of the method:
as §2

In another assay the test system is Scedosporium apiospermum. Description: Antifungal activity in vitro, resazurin growth inhibition: Scedosporium apiospermum (IHEM3817). The gist of the method:
as §1

The next assay deals with Aspergillus fumigatus. Description: Antifungal activity in vitro, resazurin growth inhibition: Aspergillus fumigatus (B42928). The gist of the method: as §1
For another assay, the system named is Cryptococcus neoformans. Description: Antifungal activity in vitro, resazurin growth inhibition: Cryptococcus neoformans (B66663). The method, boiled down: as §1
Assay [1] relates to Trichophyton mentagrophytes. Description: Antifungal activity in vitro, resazurin growth inhibition: Trichophyton mentagrophytes (B70554). The method, boiled down:
as §2

Take `Cc1ccc2cc(C3=NCc4c(Cl)cccc4-n4cccc43)oc2c1` [Compound 138]: the “Inf. D: Candida parapsilosis B66126, pIC50” value (“Inf. D” below) in the assay on Candida parapsilosis was under 4.19. In the assay with Rhizopus oryzae, the “Inf. J: Rhizopus oryzae IHEM5223, pIC50” value was under 4.19. Also, the “Inf. B: Microsporum canis B68128, pIC50” value with Microsporum canis stood at 6.99. In addition, the “Inf. K: Rhizomucor miehei IHEM13391, pIC50” value (shortened to “Inf. K”) in the assay with Rhizomucor miehei is under 4.19. For the same molecule, in the assay on Sporothrix schenkii, the “Inf. A: Sporothrix schenkii B62482, pIC50” value is reported as under 4.19. In addition, the “Inf. I: Scedosporium prolificans IHEM21157, pIC50” value (“Inf. I” for short) with Scedosporium prolificans is 6.32. Moreover, the “Inf. C: Trichophyton rubrum B68183, pIC50” value (“Inf. C” for short) in the assay with Trichophyton rubrum is 6.83. For the same molecule, the “Inf. H: Scedosporium apiospermum IHEM3817, pIC50” value (“Inf. H” for short) in the assay on Scedosporium apiospermum is 5.78. Moreover, in the assay with Aspergillus fumigatus, the “Inf. E: Aspergillus fumigatus B42928, pIC50” value (from here on “Inf. E”) is given as under 4.19. Besides, the “Inf. F: Cryptococcus neoformans B66663, pIC50” value (shortened to “Inf. F”) in the assay with Cryptococcus neoformans was under 4.19. In addition, the “Inf. G: Trichophyton mentagrophytes B70554, pIC50” value (from here on “Inf. G”) in assay [1] was found to be 6.83.

In the case of `Cc1ccc2cc(C3=NCc4c(C)cccc4-n4cccc43)oc2c1` [Compound 140], in the assay on Candida parapsilosis, the “Inf. D” value is given as 4.34. Also, in the assay on Rhizopus oryzae, the “Inf. J: Rhizopus oryzae IHEM5223, pIC50” value is listed as under 4.19. Besides, in the assay with Microsporum canis, the “Inf. B: Microsporum canis B68128, pIC50” value came to 6.44. Moreover, in the assay on Rhizomucor miehei, the “Inf. K” value is 4.68. Further, the “Inf. A: Sporothrix schenkii B62482, pIC50” value with Sporothrix schenkii is given as 6.23. In addition, the “Inf. I” value in the assay with Scedosporium prolificans worked out at 6.36. In the assay with Trichophyton rubrum, the “Inf. C” value is reported as 7.50. The “Inf. H” value in the assay on Scedosporium apiospermum was 5.35. The “Inf. E” value in the assay with Aspergillus fumigatus worked out at 5.05. For the same molecule, the “Inf. F” value with Cryptococcus neoformans was 4.60. Also, in [1], the “Inf. G” value was found to be 6.11.

As to `COc1cccc2cc(C3=NCc4c(Cl)cccc4-n4cccc43)oc12` [Compound 141], in the assay with Candida parapsilosis, the “Inf. D” value is recorded as under 4.19. Besides, in the assay with Rhizopus oryzae, the “Inf. J: Rhizopus oryzae IHEM5223, pIC50” value was under 4.19. In addition, in the assay with Microsporum canis, the “Inf. B: Microsporum canis B68128, pIC50” value came out at 6.88. Further, the “Inf. K” value in the assay with Rhizomucor miehei is listed as under 4.19. Also, the “Inf. A: Sporothrix schenkii B62482, pIC50” value with Sporothrix schenkii is on record as under 4.19. Moreover, in the assay with Scedosporium prolificans, the “Inf. I” value was 5.05. For the same molecule, the “Inf. C” value in the assay on Trichophyton rubrum was found to be 6.86. Further, the “Inf. H” value in the assay on Scedosporium apiospermum is under 4.19. In addition, in the assay with Aspergillus fumigatus, the “Inf. E” value is listed as under 4.19. Further, in the assay with Cryptococcus neoformans, the “Inf. F” value is reported as under 4.19. Further, the “Inf. G” value in assay [1] was 7.64.

In the case of `COc1cccc2cc(C3=NCc4c(C)cccc4-n4cccc43)oc12` [Compound 144], the “Inf. D” value in the assay on Candida parapsilosis was 4.57. Moreover, the “Inf. J: Rhizopus oryzae IHEM5223, pIC50” value in the assay on Rhizopus oryzae is listed as under 4.19. Also, the “Inf. B: Microsporum canis B68128, pIC50” value in the assay on Microsporum canis worked out at 6.49. Moreover, the “Inf. K” value in the assay with Rhizomucor miehei is on record as 4.44. For the same molecule, the “Inf. A: Sporothrix schenkii B62482, pIC50” value in the assay on Sporothrix schenkii was 5.69. Moreover, the “Inf. I” value in the assay with Scedosporium prolificans worked out at 6.26. Moreover, the “Inf. C” value in the assay on Trichophyton rubrum is given as over 8.41. Besides, the “Inf. H” value in the assay on Scedosporium apiospermum is recorded as 4.71. Further, the “Inf. E” value with Aspergillus fumigatus stood at 5.62. For the same molecule, the “Inf. F” value in the assay with Cryptococcus neoformans is given as 5.31. Moreover, the “Inf. G” value in [1] amounted to 7.45.

Take `COc1ccc2oc(C3=NCc4c(Cl)cccc4-n4cccc43)cc2c1` [Compound 146]: the “Inf. D” value in the assay on Candida parapsilosis was under 4.19. In the assay on Rhizopus oryzae, the “Inf. J: Rhizopus oryzae IHEM5223, pIC50” value is on record as under 4.19. For the same molecule, the “Inf. B: Microsporum canis B68128, pIC50” value in the assay with Microsporum canis is listed as 5.76. In addition, the “Inf. K” value in the assay with Rhizomucor miehei is under 4.19. For the same molecule, the “Inf. A: Sporothrix schenkii B62482, pIC50” value with Sporothrix schenkii is reported as under 4.19. For the same molecule, in the assay with Scedosporium prolificans, the “Inf. I” value is recorded as 4.80. In addition, in the assay with Trichophyton rubrum, the “Inf. C” value is 6.19. Moreover, the “Inf. H” value with Scedosporium apiospermum is listed as under 4.19. Moreover, in the assay on Aspergillus fumigatus, the “Inf. E” value is under 4.19. For the same molecule, the “Inf. F” value in the assay on Cryptococcus neoformans is under 4.19. The “Inf. G” value in [1] worked out at 5.44.

For `Fc1cccc2cc(C3=NCc4c(Cl)cc(Cl)cc4-n4cccc43)oc12` [Compound 149], in the assay with Candida parapsilosis, the “Inf. D” value was under 4.19. The “Inf. J: Rhizopus oryzae IHEM5223, pIC50” value in the assay on Rhizopus oryzae is listed as under 4.19. Also, in the assay on Microsporum canis, the “Inf. B: Microsporum canis B68128, pIC50” value was 5.35. Also, in the assay with Rhizomucor miehei, the “Inf. K” value is under 4.19. For the same molecule, the “Inf. A: Sporothrix schenkii B62482, pIC50” value in the assay with Sporothrix schenkii is reported as under 4.19. The “Inf. I” value with Scedosporium prolificans is on record as 5.79. In addition, the “Inf. C” value in the assay with Trichophyton rubrum is 6.10. The “Inf. H” value in the assay with Scedosporium apiospermum is on record as under 4.19. The “Inf. E” value in the assay on Aspergillus fumigatus is 5.47. Moreover, the “Inf. F” value in the assay with Cryptococcus neoformans is on record as 4.81. Moreover, the “Inf. G” value in [1] was 5.61.
